# Measured values: PMC7956166, “Phage-Display Based Discovery and Characterization of Peptide Ligands against WDR5” (Molecules, 2021)
# Positions of bridges follow the written chain, without caps; N, C: chain ends. Residues, ends and D or L forms follow the SMILES beside them. No end group written: not given here.
# Molecular target: T1, WDR5 (Homo sapiens, UniProt P61964)
# T1 construct: DNA fragment encoding amino acids 23 to 483 of WDR5 subcloned in the pET-28a plasmid; His6 (N); SUMO (N); made in house; host or cells: Escherichia coli BL21(DE3)
# Test: Fluorescence polarization (FP) competitive binding assay
# Conditions: for EC50: FP competitive assay vs fluorescently labeled tracer (2.5 nM), 0.2 M phosphate, 300 mM NaCl, 0.1% CHAPS, pH 6.5, 0.5 mM TCEP, 4 h incubation, 384-well plate, two independent experiments; for EC50 / Ki: mean ± standard error; for Ki: Ki from nonlinear regression fitting based on Kd of the probe, protein 5 nM
# Procedure: The fluorescence polarization (FP) binding assays used to evaluate the ability of these cyclic peptides targeting protein WDR5 were carried out in the 384-well plate. We synthesized the fluorescently labeled positive compound [28, 29]: 1-((3′,6′-dihydroxy-3-oxo-3H-spiro[isobenzofuran-1,9′-xanthen]-5-yl)amino)-N-(3′-(3,5-dimethylbenzamido)-4′-(4-methylpiperazin-1-yl)-[1,1′-biphenyl]-4-yl)-1-thioxo-5,8,11-trioxa-2-azatetradecan-14-amide, which was used in direct binding assay against WDR5. 10 μL of 10 nM positive compound was added to 20 μL WDR5(the final concentration was 5 nM) in the buffer containing 0.2 M phosphate; 300 mM NaCl; 0.1%CHAPS; PH 6.5; 0.5 mM TCEP. Then the peptide compound to be tested was diluted in a gradient and added to each well with 10μL. Finally, the assay was carried out in 40 μL volume and the protein tracer mixture was incubated for 4 h before reading the plate. The fluorescence polarization was measured in Synergy™ Neo2 Multi-Mode Microplate Reader using an excitation filter at 485 nm and an emission filter at 535 nm. Each experiment was done two times and each polarization readings consisted of two averaged measurements. The reading is processed by the following formula:(1) Inhibition=C−F/C−B×100% where C is the anisotropy value of the fluorescence substrate bound to the protein completely, B is the anisotropy value of the fluorescence substrate, F is the corresponding anisotropy value after adding different concentrations of peptides. The data were plotted against the log peptide concentration and was fitted into a one site-Fit logIC50 equation with Graphpad Prim5 software using nonlinear regression model to obtain the competitive curve:(2) Y=A+B−A/1+10^(x−LogIC50) where x is log10 of the compound concentration in M, Y is the inflection point (EC50 or IC50), A is the bottom plateau effect, B is the top plateau effect. Potency (IC50/EC50) is the log of the concentration of competitor that results in binding half-way between bottom and top.
# The EC50 values of peptides were determined in competitive binding experiments by nonlinear regression fitting of the competition curves as mentioned above. And Ki values of competitive inhibitors were obtained directly by nonlinear regression fitting, based upon the Kd values of the probe to different proteins and concentrations of the proteins and probes in the competitive assays. The data is processed by the following formula:(3) F0=P+L0+Kd−(P+L0+Kd)^2−4×P×L0/2×L0 (4) IC50/F0×Kd/(1−F0)(2−F0)+F0×L0/2=Ki(2−F0)/Kd×F0+1 where P is the proteins concentration in the assay (5 nM), L0 is the Tracer concentration in the assay (2.5 nM), F0 and the corresponding Ki value can be calculated according to the above formula.
# [1] = FP competitive assay, tracer 2.5 nM
Compound,EC50 (WDR5 5 nM) [µM],Ki [1] [nM],"binding to WDR5 (in words) (FP competitive assay, WDR5 5 nM, tracer 2.5 nM, pH 6.5)"
CC(C)C[C@@H]1NC(=O)[C@H]([C@@H](C)O)NC(=O)[C@H](CCCNC(=N)N)NC(=O)[C@@H](N)CSSC[C@@H](C(=O)O)NC(=O)[C@H](CC(N)=O)NC(=O)[C@H](CC(N)=O)NC(=O)[C@H](Cc2c[nH]c3ccccc23)NC(=O)[C@@H]2CCCN2C1=O [D206179] (H-CRTLPWNNC-OH; disulfide 1-9),2.3 ± 0.6,500 ± 100,–
CC(C)C[C@@H]1NC(=O)[C@H]([C@@H](C)O)NC(=O)[C@H](CCCNC(=N)N)NC(=O)[C@@H](N)CSSC[C@@H](C(=O)O)NC(=O)[C@H](CO)NC(=O)CNC(=O)[C@H](Cc2ccccc2)NC(=O)[C@@H]2CCCN2C1=O [D206181] (H-CRTLPFGSC-OH; disulfide 1-9),4.4 ± 0.4,900 ± 80,–
"CEKMVATHC (disulfide 1-9 (inferred)) [D206116, disulfide-constrained cyclic peptide from phage display, without “RT” motif]",–,–,unable to bind to WDR5
CC(C)C[C@@H]1NC(=O)[C@H]([C@@H](C)O)NC(=O)[C@H](CCCNC(=N)N)NC(=O)[C@@H](N)CSSC[C@@H](C(=O)O)NC(=O)[C@H](C)NC(=O)CNC(=O)[C@H](Cc2ccc(O)cc2)NC(=O)[C@@H]2CCCN2C1=O [D206180] (H-CRTLPYGAC-OH; disulfide 1-9),2.7 ± 0.2,500 ± 50,–
CC(C)C[C@@H]1NC(=O)[C@H]([C@@H](C)O)NC(=O)[C@H](CCCNC(=N)N)NC(=O)[C@@H](N)CSSC[C@@H](C(=O)O)NC(=O)[C@H](CCC(=O)O)NC(=O)[C@H](Cc2c[nH]cn2)NC(=O)[C@H](Cc2ccccc2)NC(=O)[C@@H]2CCCN2C1=O [D206115] (H-CRTLPFHEC-OH; disulfide 1-9),5.9 ± 0.2,1200 ± 40,–
